This is an account of results in article PMC3503517 (Chembiochem : a European journal of chemical biology, 2011).

Data set [1] has as its target T1, human DCTPP1 (Homo sapiens, UniProt Q9H773).
T1 sequence (Q9H773 1-170): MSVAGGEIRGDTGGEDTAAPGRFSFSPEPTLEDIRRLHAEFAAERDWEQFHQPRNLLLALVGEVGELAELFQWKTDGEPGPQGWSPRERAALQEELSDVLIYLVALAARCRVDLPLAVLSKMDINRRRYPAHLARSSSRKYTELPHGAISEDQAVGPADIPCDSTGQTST
It is filed as biochemical.

Data set [2] deals with HeLa cells. As to the kind of experiment: BrdC/BrdCTP incorporation into DNA detected with anti-BrdU antibody. Particulars: one-hour treatment. The format is cell-based, human.
Data set [3] deals with T1, human DCTPP1. Particulars: ITC, 25°C, value ± SD. (In general: In ITC the heat of successive injections is recorded.)
Data set [4] has as its system HeLa cells. As to the kind of experiment: Cytotoxicity. The format is cell-based. Particulars: Homo sapiens, 48 h, read-out: IC50 (cell number).
The data set “native gel or EMSA + SEC” concerns the molecule itself. As to the kind of experiment: native gel or EMSA + SEC. (Mobility shift assays separate free from complexed probe on a gel.)

Like-named read-outs stand apart in the source and are kept apart here.

For `Nc1ccn([C@@H]2O[C@H](COP(=O)(O)OP(=O)(O)OP(=O)(O)O)[C@@H](O)C2(F)F)c(=O)n1` [gemcitabine triphosphate], the “activity as a DCTPP1 substrate” value at human DCTPP1 [1] (kinetic assays, data not shown) is given as “did not show activity as a DCTPP1 substrate”.

On to `Nc1nc(=O)n([C@H]2C[C@H](O)[C@@H](CO)O2)cc1Br` [BrdC], for which the “BrdU incorporation (fraction of anti-BrdU reactive cells)” value in the data set with HeLa cells [2] is 30–43 % of cells.

Take `Nc1nc(=O)n([C@H]2C[C@H](O)[C@@H](COP(=O)(O)OP(=O)(O)OP(=O)(O)O)O2)cc1Br` [BrdCTP]: the “BrdU incorporation (fraction of anti-BrdU reactive cells)” value in the data set with HeLa cells [2] is given as 30–43 % of cells.

The IC50 is the midpoint of a concentration-inhibition curve. As for `CC(C)[C@]12O[C@H]1[C@@H]1O[C@]13[C@]1(O[C@H]1C[C@H]1C4=C(CC[C@@]13C)C(=O)OC4)[C@@H]2O` [compound 1, triptolide], the ΔH at human DCTPP1 [3] is -19.98 ± 1.70 kcal/mol; at human DCTPP1 [3] (listed as triptolide), “–19.98 ± 1.70 kcal/mol”. Besides, the “n (binding stoichiometry)” value on human DCTPP1 [3] (per DCTPP1 monomer) was determined as 0.601 ± 0.075. The IC50 with HeLa cells [4] is 7 to 10 nM.

Broadly, the Km is the concentration of substrate that gives half-maximal velocity. As a reminder, the kcat is the maximal rate divided by the concentration of active sites. As for `Nc1nc(=O)n([C@H]2C[C@H](O)[C@@H](COP(=O)(O)OP(=O)(O)OP(=O)(O)O)O2)cc1I` [5-I-dCTP], on human DCTPP1 [1] (as substrate of DCTPP1), the Michaelis constant (Km) was determined as 239 µM and the turnover number (kcat) came to 0.000864 s⁻¹.

B1: recombinant human dCTP pyrophosphatase 1 (DCTPP1), GST tag cleaved off (enzyme, UniProt Q9H773 1-170, looked up)
chain: MSVAGGEIRGDTGGEDTAAPGRFSFSPEPTLEDIRRLHAEFAAERDWEQFHQPRNLLLALVGEVGELAELFQWKTDGEPGPQGWSPRERAALQEELSDVLIYLVALAARCRVDLPLAVLSKMDINRRRYPAHLARSSSRKYTELPHGAISEDQAVGPADIPCDSTGQTST
As a reminder, the stoichiometry N is a count of units in the complex or per binding partner. With B1, the “stoichiometry N” value in “native gel or EMSA + SEC” turned out to be 2.
